# Experimental data taken from PubChem BioAssay AID1259408 (Genetic Toxicology Data Bank (GENE-TOX), 2018).
# Calls of active or inactive are those of the source. The rule behind the calls is not given here.
# Tested on: GENE-TOX genotoxicity assays, various organisms and cells
# Experiment: GENE-TOX mutagenicity studies
# Settings: for call: Assay Type: In vivo carcinogenicity studies
# [1] = Species/Cell Type: Nonhuman, Assay Type: Sister-chromatid exchange (SCE) in vitro, Assay Code: SC2+D, Dose Response: With dose response, Evaluation Type: Evaluation B (Post-1980)
# [2] = Species/Cell Type: Escherichia coli polA (W3119 vs P3478), Assay Type: Rec-assay, DNA effects (bacterial DNA repair), Assay Code: RE1T, Evaluation Type: Evaluation A (Pre-1980)
# [3] = Species/Cell Type: Nonhuman, Assay Code: CCG+, Evaluation Type: Evaluation A (Pre-1980)
# [4] = Species/Cell Type: Saccharomyces cerevisiae, Assay Type: Mitotic recombination or gene conversion, Assay Code: YEH-, Evaluation Type: Evaluation A (Pre-1980)
# [5] = Species/Cell Type: Salmonella typhimurium (one or more of the five standard strains: TA98, TA100, TA1535, TA1537, and TA1538), Assay Type: Histidine reverse gene mutation, Ames assay, Assay Code: SAL+*, Activation: With metabolic activation, Evaluation Type: Evaluation A (Pre-1980)
# [6] = Species/Cell Type: Salmonella typhimurium, Assay Type: Forward and reverse gene mutation, host-mediated assay, Assay Code: HMA-, Evaluation Type: Evaluation A (Pre-1980)
# [7] = Species/Cell Type: Saccharomyces cerevisiae, Assay Type: Mitotic recombination or gene conversion, Assay Code: YEC+, Evaluation Type: Evaluation A (Pre-1980)
# [8] = Species/Cell Type: Salmonella typhimurium (one or more of the five standard strains: TA98, TA100, TA1535, TA1537, and TA1538), Assay Type: Histidine reverse gene mutation, Ames assay, Assay Code: SALT, Evaluation Type: Evaluation A (Pre-1980)
# [9] = Species/Cell Type: Nonhuman, Assay Code: CCG+L, Evaluation Type: Evaluation A (Pre-1980)
# [10] = Species/Cell Type: Drosophila melanogaster, Assay Type: Sex-linked recessive lethal gene mutation, Assay Code: SRL+, Evaluation Type: Evaluation A (Pre-1980)
# [11] = Species/Cell Type: Salmonella typhimurium (one or more of the five standard strains: TA98, TA100, TA1535, TA1537, and TA1538), Assay Type: Histidine reverse gene mutation, Ames assay, Assay Code: SAL+, Evaluation Type: Evaluation A (Pre-1980)
compound,measurement,setting,value
CC(=O)c1ccccc1,mutagenic call,"Species/Cell Type: Escherichia coli polA (W3110 vs P3478), Assay Type: Rec-assay, DNA effects (bacterial DNA repair), Assay Code: RE2-, Evaluation Type: Evaluation A (Pre-1980)",inactive; negative
same,mutagenic call,"Species/Cell Type: Escherichia coli polA (W3119 vs P3478), Assay Type: Rec-assay, DNA effects (bacterial DNA repair), Assay Code: RE1-, Evaluation Type: Evaluation A (Pre-1980)",inactive; negative
CCN(CC)c1ccc2c(-c3ccc(C(=O)O)cc3C(=O)[O-])c3ccc(=[N+](CC)CC)cc-3oc2c1,mutagenic call,"Species/Cell Type: Mammalian polychromatic erythrocytes, Assay Type: Micronucleus test, chromosome aberrations, Assay Code: MNT-, Evaluation Type: Evaluation B (Post-1980)",inactive; negative
same,mutagenic call,[1],active; positive
Cc1c2ccccc2c(CO)c2ccc3ccccc3c12,mutagenic call,"Species/Cell Type: Chinese hamster lung (V79) cells, Assay Type: Forward gene mutation at the HPRT or ouabain locus, Assay Code: V79+, Evaluation Type: Evaluation A (Pre-1980)",active; positive
same,mutagenic call,"Species/Cell Type: Escherichia coli polA (W3110 vs P3478), Assay Type: Rec-assay, DNA effects (bacterial DNA repair), Assay Code: RE2+, Evaluation Type: Evaluation A (Pre-1980)",active; positive
same,mutagenic call,[2],no conclusion
same,call,[3],active; positive
same,mutagenic call,[4],inactive; negative
same,mutagenic call,[5],active; positive
same,mutagenic call,[6],inactive; negative
NC1=NC(=O)NC(=O)C1,mutagenic call,"Species/Cell Type: Vicia faba, Assay Type: Chromosome aberrations, Assay Code: VIC+, Evaluation Type: Evaluation A (Pre-1980)",active; positive
CN(C)N=Nc1cccc(O)c1,mutagenic call,"Species/Cell Type: Drosophila melanogaster, Assay Type: Sex-linked recessive lethal gene mutation, Assay Code: SRLT, Evaluation Type: Evaluation A (Pre-1980)",no conclusion
same,mutagenic call,[7],active; positive
CO[C@@H]1[C@H](C)O[C@@H](O[C@@H]2C[C@H](Oc3cc(O)c4c(O)c5c(cc4c3)C[C@@H]([C@H](OC)C(=O)[C@@H](O)[C@@H](C)O)[C@H](O[C@@H]3C[C@H](OC4C[C@H](O)[C@@H](O)[C@H](C)O4)[C@@H](O)[C@H](C)O3)C5=O)O[C@H](C)[C@@H]2O)C[C@@H]1O (stereo not given in full),mutagenic call,"Species/Cell Type: Chinese hamster ovary (CHO) cells, Assay Type: Forward gene mutation at the HPRT locus, Assay Code: CHO+, Evaluation Type: Evaluation B (Post-1980)",active; positive
ClCOCCl,call,[3],active; positive
c1cc2cccc3c4cccc5cccc(c(c1)c23)c54,mutagenic call,"Species/Cell Type: Chinese hamster lung (V79) cells, Assay Type: Forward gene mutation, host-mediated assay, Assay Code: HMG-, Evaluation Type: Evaluation A (Pre-1980)",inactive; negative
same,mutagenic call,"Species/Cell Type: Nonhuman, Assay Type: Sister-chromatid exchange (SCE) in vivo, Assay Code: SC3-, Evaluation Type: Evaluation A (Pre-1980)",inactive; negative
C/C=C(C)/C=C/C=C(C)/C=C/C1=C(C)CCCC1(C)C,mutagenic call,"Species/Cell Type: Human, Assay Type: Sister-chromatid exchange (SCE) in vitro, Assay Code: SC1+D, Dose Response: With dose response, Evaluation Type: Evaluation B (Post-1980)",active; positive
O=C(COc1ccc(Br)cc1CN1CCCCC1)N/N=C/c1ccccc1O,mutagenic call,"Species/Cell Type: Saccharomyces cerevisiae, Assay Type: Reverse gene mutation, Assay Code: YERT, Evaluation Type: Evaluation A (Pre-1980)",no conclusion
CNC1(c2ccccc2Cl)CCCCC1=O (stereo not given),mutagenic call,[8],no conclusion
Cc1ccc2nc3c(ccc4ccccc43)c(C)c2c1,mutagenic call,"Species/Cell Type: Escherichia coli polA (W3110 vs P3478), Assay Type: Rec-assay, DNA effects (bacterial DNA repair), Assay Code: RE2T, Evaluation Type: Evaluation A (Pre-1980)",no conclusion
same,mutagenic call,[2],no conclusion
same,mutagenic call,"Species/Cell Type: Fischer rat embryo (RLV/1706) cells, Assay Type: Cell transformation, viral enhanced, Assay Code: CTR+, Evaluation Type: Evaluation A (Pre-1980)",active; positive
same,mutagenic call,"Species/Cell Type: Mouse (BALB/c-3T3) cells, Assay Type: Cell transformation, Assay Code: CTB-, Evaluation Type: Evaluation A (Pre-1980)",inactive; negative
same,call,[9],active; positive
same,mutagenic call,[4],inactive; negative
same,mutagenic call,[5],active; positive
same,mutagenic call,[6],inactive; negative
same,mutagenic call,"Species/Cell Type: Syrian hamster embryo (SHE) cells, Assay Type: Cell transformation, clonal assay, Assay Code: CTC+, Evaluation Type: Evaluation A (Pre-1980)",active; positive
CC(C)C[C@H](NP(=O)(O)O[C@@H]1O[C@@H](C)[C@H](O)[C@@H](O)[C@H]1O)C(=O)N[C@@H](Cc1c[nH]c2ccccc12)C(=O)O,mutagenic call,"Species/Cell Type: Human, Assay Type: Sister-chromatid exchange (SCE) in vitro, Assay Code: SC1T, Evaluation Type: Evaluation B (Post-1980)",no conclusion
Cc1cc(N)c(N)cc1N,mutagenic call,[8],no conclusion
CN(CC(C)(C)C)N=O,mutagenic call,[8],no conclusion
[N-]=[N+]=[N-],mutagenic call,"Species/Cell Type: Arabidopsis species, Assay Type: Gene mutation, Assay Code: ARMT, Evaluation Type: Evaluation A (Pre-1980)",no conclusion
same,mutagenic call,[10],active; positive
same,mutagenic call,"Species/Cell Type: Escherichia coli WP2, Assay Type: Tryptophan reverse gene mutation, Assay Code: WP2T, Evaluation Type: Evaluation A (Pre-1980)",no conclusion
same,mutagenic call,"Species/Cell Type: Escherichia coli WP2 UVRA, Assay Type: Tryptophan reverse gene mutation, Assay Code: WPU-, Evaluation Type: Evaluation A (Pre-1980)",inactive; negative
same,mutagenic call,"Species/Cell Type: Glycine max (soybean), Assay Type: Gene mutation, Assay Code: GLM+, Evaluation Type: Evaluation A (Pre-1980)",active; positive
same,mutagenic call,"Species/Cell Type: Hordeum vulgare (barley), Assay Type: Gene mutation, Assay Code: HOM+, Evaluation Type: Evaluation A (Pre-1980)",active; positive
same,mutagenic call,"Species/Cell Type: Human diploid fibroblasts, Assay Type: Unscheduled DNA synthesis (UDS) in vitro, DNA effects, Assay Code: UDH-, Evaluation Type: Evaluation A (Pre-1980)",inactive; negative
same,mutagenic call,"Species/Cell Type: Human lymphocytes or leukocytes, Assay Type: Chromosome aberrations in vitro, Assay Code: CY7-, Evaluation Type: Evaluation A (Pre-1980)",inactive; negative
same,mutagenic call,"Species/Cell Type: Human lymphocytes, Assay Type: Sister-chromatid exchange (SCE) in vitro, Assay Code: SCL+, Evaluation Type: Evaluation B (Post-1980)",active; positive
same,mutagenic call,"Species/Cell Type: Human, Assay Type: Sister-chromatid exchange (SCE) in vitro, Assay Code: SC1+, Evaluation Type: Evaluation B (Post-1980)",active; positive
same,mutagenic call,"Species/Cell Type: Mouse lymphoma (L5178Y) cells, Assay Type: Forward gene mutation at the thymidine kinase (TK) locus, chromosome aberrations, Assay Code: L51+, Evaluation Type: Evaluation A (Pre-1980)",active; positive
same,mutagenic call,"Species/Cell Type: Mouse, Sex: Male, Assay Type: Sperm morphology, Assay Code: SPI-, Evaluation Type: Evaluation A (Pre-1980)",inactive; negative
same,call,"Species/Cell Type: Nonhuman, Assay Code: CCGT, Evaluation Type: Evaluation A (Pre-1980)",no conclusion
same,mutagenic call,"Species/Cell Type: Saccharomyces cerevisiae, Assay Type: Forward gene mutation, Assay Code: YEF+, Evaluation Type: Evaluation A (Pre-1980)",active; positive
same,mutagenic call,[7],active; positive
same,mutagenic call,"Species/Cell Type: Saccharomyces cerevisiae, Assay Type: Reverse gene mutation, Assay Code: YER+*, Activation: With metabolic activation, Evaluation Type: Evaluation A (Pre-1980)",active; positive
same,mutagenic call,[11],active; positive
same,mutagenic call,"Species/Cell Type: Tradescantia species, Assay Type: Chromosome aberrations, Assay Code: TRC+D, Dose Response: With dose response, Evaluation Type: Evaluation A (Pre-1980)",active; positive
same,mutagenic call,"Species/Cell Type: Tradescantia species, Assay Type: Gene mutation, Assay Code: TRM+D, Dose Response: With dose response, Evaluation Type: Evaluation A (Pre-1980)",active; positive
same,mutagenic call,"Species/Cell Type: Zea mays (corn), Assay Type: Gene mutation, Assay Code: ZEM+D, Dose Response: With dose response, Evaluation Type: Evaluation A (Pre-1980)",active; positive
O=C1c2ccccc2C(=O)c2c(NCCNCCO)ccc(NCCNCCO)c21,mutagenic call,[1],active; positive
CC(=O)ON(C(C)=O)c1ccc(-c2ccccc2)cc1,mutagenic call,"Species/Cell Type: Human diploid fibroblasts, Assay Type: Unscheduled DNA synthesis (UDS) in vitro, DNA effects, Assay Code: UDH+, Evaluation Type: Evaluation A (Pre-1980)",active; positive
same,mutagenic call,"Species/Cell Type: Nonhuman, Assay Type: Sister-chromatid exchange (SCE) in vitro, Assay Code: SC2+, Evaluation Type: Evaluation B (Post-1980)",active; positive
ClC/C=C/CCl,mutagenic call,[10],active; positive
[Cd],mutagenic call,"Species/Cell Type: Human lymphocytes or leukocytes, Assay Type: Chromosome aberrations in vivo, Assay Code: CY8T, Evaluation Type: Evaluation A (Pre-1980)",no conclusion
same,call,[9],active; positive
Nc1ccc2ccccc2c1N=Nc1ccccc1,mutagenic call,[8],no conclusion
[Cl][Sb]([Cl])[Cl],mutagenic call,"Species/Cell Type: Bacillus subtilis (H17 vs M45), Assay Type: Rec-assay, spot test, DNA effects (bacterial DNA repair), Assay Code: REW+, Evaluation Type: Evaluation A (Pre-1980)",active; positive
CC(=O)c1ccc([N+](=O)[O-])s1,mutagenic call,[11],active; positive
CC(=O)OC(c1ccccc1)N(C)N=O (stereo not given),mutagenic call,[11],active; positive
NC[C@H]1O[C@H](O[C@H]2[C@H](O)[C@@H](O[C@H]3O[C@H](CO)[C@@H](O)[C@H](N)[C@H]3O)[C@H](N)C[C@@H]2N)[C@H](N)[C@@H](O)[C@@H]1O,mutagenic call,[4],inactive; negative
CN1CCN(c2ccc([N+](=O)[O-])c3no[n+]([O-])c23)CC1,mutagenic call,[11],active; positive
